Columns and labels:
[1] = tested on: formalin-induced nocifensive behaviours; test: Formalin test; assay type: in vivo, rats; conditions: dose 60, time 40, route IP (units of dose and time not given)
[2] = molecular target: N-type calcium channel (Homo sapiens, UniProt Q00975); test: N-channel FLIPR (Fluorescent Laser Imaging Plate Reader) assay; assay type: cell-based; conditions: differentiated IMR32 cells, 80 mM K+ stimulus; unit inferred
[3] = tested on: NK-1 receptor; conditions: phenylbenzoquinone-induced writhing and formalin test; compared with morphine; cited from earlier work

Sequence of N-type calcium channel (Q00975 whole entry): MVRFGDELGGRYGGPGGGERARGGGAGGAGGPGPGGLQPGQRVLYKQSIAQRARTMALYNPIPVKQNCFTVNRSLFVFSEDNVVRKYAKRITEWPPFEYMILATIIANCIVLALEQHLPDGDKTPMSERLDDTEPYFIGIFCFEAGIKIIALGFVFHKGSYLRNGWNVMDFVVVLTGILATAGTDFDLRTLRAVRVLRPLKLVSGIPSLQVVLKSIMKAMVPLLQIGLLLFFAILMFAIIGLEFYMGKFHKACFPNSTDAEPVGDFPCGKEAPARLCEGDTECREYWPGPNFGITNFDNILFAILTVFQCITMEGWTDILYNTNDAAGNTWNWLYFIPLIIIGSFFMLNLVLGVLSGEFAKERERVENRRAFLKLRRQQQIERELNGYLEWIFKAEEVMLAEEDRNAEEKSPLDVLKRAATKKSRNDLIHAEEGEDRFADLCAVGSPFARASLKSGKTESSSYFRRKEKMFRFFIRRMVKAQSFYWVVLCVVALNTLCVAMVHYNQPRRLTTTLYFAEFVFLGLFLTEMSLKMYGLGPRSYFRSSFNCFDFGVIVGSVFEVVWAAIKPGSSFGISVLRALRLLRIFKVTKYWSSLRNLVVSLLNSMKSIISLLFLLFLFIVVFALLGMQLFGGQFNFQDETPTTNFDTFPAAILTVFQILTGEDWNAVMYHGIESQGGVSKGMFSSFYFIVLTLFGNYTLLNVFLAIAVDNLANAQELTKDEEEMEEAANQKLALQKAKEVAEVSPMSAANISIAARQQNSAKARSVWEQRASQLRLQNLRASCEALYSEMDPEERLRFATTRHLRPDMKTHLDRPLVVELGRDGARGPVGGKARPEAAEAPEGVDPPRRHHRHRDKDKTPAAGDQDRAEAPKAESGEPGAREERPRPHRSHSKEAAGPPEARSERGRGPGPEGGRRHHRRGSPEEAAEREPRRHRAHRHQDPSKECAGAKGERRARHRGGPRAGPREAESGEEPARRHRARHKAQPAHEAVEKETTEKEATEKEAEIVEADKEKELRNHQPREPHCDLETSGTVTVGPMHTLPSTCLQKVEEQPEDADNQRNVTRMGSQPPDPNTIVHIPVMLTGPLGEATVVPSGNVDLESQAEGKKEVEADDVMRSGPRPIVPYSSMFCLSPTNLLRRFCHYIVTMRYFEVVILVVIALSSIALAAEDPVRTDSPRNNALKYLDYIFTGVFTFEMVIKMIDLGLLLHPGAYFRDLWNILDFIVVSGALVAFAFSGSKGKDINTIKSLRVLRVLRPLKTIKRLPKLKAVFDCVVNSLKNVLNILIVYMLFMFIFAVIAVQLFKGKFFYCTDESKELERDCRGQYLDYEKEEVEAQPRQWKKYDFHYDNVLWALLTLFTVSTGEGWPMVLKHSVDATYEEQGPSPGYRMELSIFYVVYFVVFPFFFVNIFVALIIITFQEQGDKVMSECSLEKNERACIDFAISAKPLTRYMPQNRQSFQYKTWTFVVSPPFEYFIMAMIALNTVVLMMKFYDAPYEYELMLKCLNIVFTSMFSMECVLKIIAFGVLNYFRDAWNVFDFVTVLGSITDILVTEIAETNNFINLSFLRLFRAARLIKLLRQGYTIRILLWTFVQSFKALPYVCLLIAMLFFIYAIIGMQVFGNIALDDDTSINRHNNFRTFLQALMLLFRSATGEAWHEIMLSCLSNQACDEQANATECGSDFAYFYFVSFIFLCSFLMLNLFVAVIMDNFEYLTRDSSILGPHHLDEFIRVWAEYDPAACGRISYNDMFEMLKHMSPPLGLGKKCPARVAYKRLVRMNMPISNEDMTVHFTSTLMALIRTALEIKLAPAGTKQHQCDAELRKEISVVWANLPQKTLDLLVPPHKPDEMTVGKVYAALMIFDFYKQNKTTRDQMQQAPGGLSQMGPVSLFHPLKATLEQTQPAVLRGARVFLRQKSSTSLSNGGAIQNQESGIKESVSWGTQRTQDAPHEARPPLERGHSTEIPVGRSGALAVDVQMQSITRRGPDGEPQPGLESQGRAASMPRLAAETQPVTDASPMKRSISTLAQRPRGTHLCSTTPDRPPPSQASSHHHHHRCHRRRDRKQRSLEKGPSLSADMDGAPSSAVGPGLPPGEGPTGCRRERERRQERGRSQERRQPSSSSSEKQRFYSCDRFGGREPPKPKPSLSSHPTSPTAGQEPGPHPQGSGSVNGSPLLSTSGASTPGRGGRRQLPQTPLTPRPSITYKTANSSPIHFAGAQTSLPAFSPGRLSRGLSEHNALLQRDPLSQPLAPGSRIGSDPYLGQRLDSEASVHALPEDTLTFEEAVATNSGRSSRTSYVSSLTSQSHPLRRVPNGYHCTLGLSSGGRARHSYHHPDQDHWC
Sequence of N-type calcium channel (P54284 whole entry partner): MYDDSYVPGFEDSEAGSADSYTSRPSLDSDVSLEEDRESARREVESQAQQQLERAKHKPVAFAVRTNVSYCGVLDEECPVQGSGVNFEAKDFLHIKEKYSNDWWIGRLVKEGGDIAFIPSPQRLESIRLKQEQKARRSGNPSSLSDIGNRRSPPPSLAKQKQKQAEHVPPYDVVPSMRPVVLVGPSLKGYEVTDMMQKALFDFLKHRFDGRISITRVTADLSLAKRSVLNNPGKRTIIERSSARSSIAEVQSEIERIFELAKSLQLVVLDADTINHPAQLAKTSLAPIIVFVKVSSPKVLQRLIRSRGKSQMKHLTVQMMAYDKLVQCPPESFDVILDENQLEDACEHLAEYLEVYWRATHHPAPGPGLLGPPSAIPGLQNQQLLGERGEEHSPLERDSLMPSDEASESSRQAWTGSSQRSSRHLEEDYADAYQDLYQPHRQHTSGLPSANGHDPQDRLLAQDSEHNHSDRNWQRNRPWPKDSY
Sequence of N-type calcium channel (P54289 25-956 partner limits assumed): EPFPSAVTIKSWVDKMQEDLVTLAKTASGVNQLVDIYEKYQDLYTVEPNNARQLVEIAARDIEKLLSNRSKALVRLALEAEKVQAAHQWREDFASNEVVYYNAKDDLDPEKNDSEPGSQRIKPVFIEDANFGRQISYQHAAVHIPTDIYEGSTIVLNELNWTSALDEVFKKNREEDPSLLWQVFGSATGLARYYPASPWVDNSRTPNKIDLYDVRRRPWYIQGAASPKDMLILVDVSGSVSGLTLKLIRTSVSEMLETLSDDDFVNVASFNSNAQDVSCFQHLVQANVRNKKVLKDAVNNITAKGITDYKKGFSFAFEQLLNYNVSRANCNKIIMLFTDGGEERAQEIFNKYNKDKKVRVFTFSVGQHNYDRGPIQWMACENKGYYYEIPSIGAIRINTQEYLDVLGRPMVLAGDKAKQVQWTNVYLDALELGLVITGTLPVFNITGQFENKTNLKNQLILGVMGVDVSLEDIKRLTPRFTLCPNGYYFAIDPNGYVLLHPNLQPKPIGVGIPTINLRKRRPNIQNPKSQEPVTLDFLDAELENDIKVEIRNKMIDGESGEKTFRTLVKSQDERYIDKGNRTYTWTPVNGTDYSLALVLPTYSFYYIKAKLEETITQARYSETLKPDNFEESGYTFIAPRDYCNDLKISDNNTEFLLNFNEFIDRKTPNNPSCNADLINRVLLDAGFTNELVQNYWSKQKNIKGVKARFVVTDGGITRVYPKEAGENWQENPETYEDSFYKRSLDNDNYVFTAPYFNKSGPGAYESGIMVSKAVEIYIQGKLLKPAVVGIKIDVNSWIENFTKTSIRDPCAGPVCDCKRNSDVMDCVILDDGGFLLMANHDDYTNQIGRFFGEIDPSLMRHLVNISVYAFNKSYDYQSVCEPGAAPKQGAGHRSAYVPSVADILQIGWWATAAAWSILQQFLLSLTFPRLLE
Sequence of N-type calcium channel (P54289 957-1103 partner limits assumed): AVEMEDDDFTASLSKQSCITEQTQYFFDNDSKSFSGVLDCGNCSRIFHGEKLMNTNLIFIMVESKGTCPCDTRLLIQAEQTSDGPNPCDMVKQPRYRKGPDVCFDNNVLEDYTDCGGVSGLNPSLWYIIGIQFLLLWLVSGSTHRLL

| SMILES | IC50 [2] [µM] | further results |
| --- | --- | --- |
| Clc1ccc(Nc2cc(Nc3ccccc3N3CCOCC3)nc3ccccc23)cc1Cl [Example 2, N4-(3,4-Dichloro-phenyl)-N2-(2-morpholin-4-yl-phenyl)-quinoline-2,4-diamine] | – | Formalin test % inhibition (dose, time route) [1]: 42 (60, 40, IP) % |
| Nc1ccccc1Nc1cc(Nc2ccc(Cl)c(Cl)c2)c2cccc(F)c2n1 [Example 14, N2-(2-Amino-phenyl)-N4-(3,4-dichloro-phenyl)-8-fluoro-quinoline-2,4-diamine] | 4.01 | – |
| Nc1ccccc1Nc1cc(Nc2ccc(Cl)c(Cl)c2)c2ccccc2n1 [Example 27, N2-(2-amino-phenyl)-N4-(3,4-dichloro-phenyl)-quinoline-2,4-diamine] | 9.82 | – |
| COc1ccccc1CC(=N)N1C[C@@H]2C(=O)CCC(c3ccccc3)(c3ccccc3)[C@@H]2C1 [RP 67,580] | – | analgesia in chemo-nociception tests [3]: produced analgesia with potency comparable to that of morphine |

Source: patent US7153865B2, “N-type calcium channel antagonists for the treatment of pain” (Astrazeneca AB, priority 2001, dated 2006)
